According to US4465772A, “Method for disinfecting and washing of immobilized lactase” (priority 1980, dated 1984):
Read-outs that look alike come from different tables or passages of the source.

Tests used:
[1] = test system: Mixture of five strains separated from the putrefied milk; assay: Disinfecting power (number of viable cells); format: cell-based; conditions: initial 10^5-10^6/ml
Protocol: (1) Disinfecting power (number of viable cells)
Milk obtained commercially was putrefied. Mixture of five strains separated from the putrefied milk was suspended in a 0.2 % bouillon solution (pH: 7.0) so that the number of viable cells attains to 10^5 -10^6 /ml. To this suspension was added an equal amount of an undiluted solution having a concentration of each chemical twice as high as that to be applied. A cotton plug was corked to each container and sampling was carried out after 1 hour and 7 days. The sample was diluted at need and plating on the standard agaragar culture medium was effected to count the number of colonies.
The symbols related to the number of viable cells designate as follows: […]

[2] = molecular target: T1, immobilized lactase (lactase derived from Aspergillus oryzae) (Aspergillus oryzae, UniProt Q2UCU3); assay: Residual enzyme activity of immobilized lactase after immersion in disinfectant solutions; format: biochemical; conditions: for Residual enzyme activity (relative ratio, %) after immersion for 7 days / Residual enzyme activity (relative ratio, %) after immersion for 30 days / remaining activity at 1 % / remaining activity at 0.1 % / remaining activity at 70 % / remaining activity at 0.01 %: 18°-20° C.; for remaining activity at 0.1 %: chemical 0.1%; for remaining activity at 70 %: chemical 70%; for remaining activity at 0.01 %: chemical 0.01%
T1 construct: host or cells: Aspergillus oryzae
T1 sequence (Q2UCU3 19-1005): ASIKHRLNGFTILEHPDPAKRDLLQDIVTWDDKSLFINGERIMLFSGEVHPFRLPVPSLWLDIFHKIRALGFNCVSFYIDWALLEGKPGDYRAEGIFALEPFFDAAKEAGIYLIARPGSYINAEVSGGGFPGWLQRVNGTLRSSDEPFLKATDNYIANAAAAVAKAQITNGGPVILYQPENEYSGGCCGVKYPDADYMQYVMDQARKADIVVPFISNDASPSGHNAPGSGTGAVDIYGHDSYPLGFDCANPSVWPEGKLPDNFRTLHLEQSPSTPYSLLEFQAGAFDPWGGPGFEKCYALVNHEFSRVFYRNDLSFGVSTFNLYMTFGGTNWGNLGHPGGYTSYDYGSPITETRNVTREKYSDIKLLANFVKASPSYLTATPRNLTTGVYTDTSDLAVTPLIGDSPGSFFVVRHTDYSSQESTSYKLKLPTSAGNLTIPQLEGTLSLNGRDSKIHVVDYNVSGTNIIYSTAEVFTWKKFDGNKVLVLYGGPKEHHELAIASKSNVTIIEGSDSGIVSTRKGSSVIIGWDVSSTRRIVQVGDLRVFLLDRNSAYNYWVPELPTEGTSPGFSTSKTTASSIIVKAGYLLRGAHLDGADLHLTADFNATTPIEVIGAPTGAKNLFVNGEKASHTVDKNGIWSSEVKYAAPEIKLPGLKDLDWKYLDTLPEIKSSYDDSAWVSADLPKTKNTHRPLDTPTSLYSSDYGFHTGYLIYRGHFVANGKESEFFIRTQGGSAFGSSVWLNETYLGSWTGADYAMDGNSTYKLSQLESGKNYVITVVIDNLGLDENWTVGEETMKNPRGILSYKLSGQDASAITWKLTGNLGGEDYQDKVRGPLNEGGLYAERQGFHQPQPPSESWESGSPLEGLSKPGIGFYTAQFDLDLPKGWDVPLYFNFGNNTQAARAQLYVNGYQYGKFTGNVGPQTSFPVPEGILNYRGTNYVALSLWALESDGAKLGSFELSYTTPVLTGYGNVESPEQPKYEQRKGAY
Text: As the immobilized lactase was used one prepared by using a macroporous phenol-formaldehyde type amphoteric ion-exchange resin (particle size: 250-840μ) as the carrier, making the same adsorb the lactase derived from Aspergillus oryzae and carrying out the glutaraldehyde treatment to cause immobilization by covalent linkage [EPC publication No. 26672 (published on Apr. 8, 1981)].
(2) Residual enzyme activity
[…] […] The sample was sufficiently washed with an excessively large amount of water and a 0.05 M acetate buffer solution at pH 4.5 and then the residual activity was measured.
In 30 ml of lactose solution having a concentration of 13.3 (W/V) % prepared by dissolving lactose in a 0.05 M acetate buffer solution of pH 4.5 was immersed 0.2-0.25 ml of an immobilized lactase. The reaction was allowed to proceed at 30° C. under reciprocating shaking (more than 100 rpm with an amplitude larger than 3.5 cm) for 15 minutes. Then the amount of glucose produced was determined with a glucose oxidase-peroxidase-dye system. The amount of enzyme which produces 1μ mol of glucose per minute is defined as one unit (1 ILU). The dry weight of an immobilized lactase is determined as mentioned below. That is, after the termination of the reaction, the immobilized lactase was filtered, dried at 50° C. under reduced pressure for 8 hours or more, placed in a desiccator at room temperature (18°-25° C.) for 1.5 hours or more, the weight thereof was then measured and this value is regarded as the dry weight of the immobilized lactase. The activity of an immobilized lactase is represented by the unit per gram of dry weight (1 ILU/g-IML).

[3] = chemical 1%, relative to 860 ILU/g-IML before immersion
[4] = 168 h, chemical 1%, relative to 860 ILU/g-IML before immersion, read-out: Residual enzyme activity (relative ratio, %) after immersion for 7 days
[5] = 720 h, chemical 1%, relative to 860 ILU/g-IML before immersion, read-out: Residual enzyme activity (relative ratio, %) after immersion for 30 days
[6] = 168 h, relative to 860 ILU/g-IML, read-out: Residual enzyme activity (relative ratio, %) after immersion for 7 days
[7] = 720 h, relative to 860 ILU/g-IML, read-out: Residual enzyme activity (relative ratio, %) after immersion for 30 days
[8] = chemical 10%, relative to 860 ILU/g-IML
[9] = concentration of chemical 0.01%

Row | SMILES | Number of viable cells after 1 hr. ([1]; concentration of chemical 1%) | Number of viable cells after 7 days ([1]; concentration of chemical 1%) | remaining activity at 1 % [2, 4] [%] | remaining activity at 1 % [2, 5] [%] | further results
1 | OO [35% H2 O2 solution, hydrogen peroxide] | ⊖ | ⊖ | – | – | Residual enzyme activity (relative ratio, %) after immersion for 7 days [2, 3]: 100%; Residual enzyme activity (relative ratio, %) after immersion for 30 days [2, 3]: 98%
2 | CC(=O)O [Acetic acid] | ⊖ | ⊖ | 102 | 100 | –
3 | CC(=O)C1C(=O)C=C(C)OC1=O (stereo not shown) [Dehydroacetic acid] | – | – | – | – | Number of viable cells after 1 hr. ([1]; concentration of chemical 0.1%): ⊖; Number of viable cells after 7 days ([1]; concentration of chemical 0.1%): ⊖; remaining activity at 0.1 % [2, 6]: 98%; remaining activity at 0.1 % [2, 7]: 102%
4 | CCO [Ethyl alcohol] | – | – | – | – | Number of viable cells after 1 hr. ([1]; concentration of chemical 70%): ⊖; Number of viable cells after 7 days ([1]; concentration of chemical 70%): ⊖; decrease of activity of immobilized lactase on immersion ([2]; 70% solution, immersed for a long period at 18°-20° C.): decrease of activity to some extent; remaining activity at 70 % [2, 6]: 84%; remaining activity at 70 % [2, 7]: 67%
5 | O=CCCCC=O [Glutaraldehyde] | ⊖ | ⊖ | 102 | 98 | –
6 | CC(O)C(=O)O (stereo not shown) [Lactic acid] | ⊖ to ⊕ | ⊖ | 103 | 101 | decrease of activity of immobilized lactase on immersion ([2]; 1% solution, five months at room temperature (18°-25° C.)): completely no decrease of activity
7 | O=C(O)CC(O)C(=O)O (stereo not shown) [Malic acid] | ⊖ | ⊖ | 101 | 100 | –
8 | C/C=C/C=C/C(=O)[O-].[K+] [Potassium sorbate] | ⊖ | ⊖ | 103 | 101 | –
9 | [Cl-].[Na+] [Sodium chloride] | – | – | – | – | Number of viable cells after 1 hr. ([1]; concentration of chemical 10%): ⊖ to ⊕; Number of viable cells after 7 days ([1]; concentration of chemical 10%): ⊖; Residual enzyme activity (relative ratio, %) after immersion for 7 days [2, 8]: 100%; Residual enzyme activity (relative ratio, %) after immersion for 30 days [2, 8]: 98%
10 | OCl [Sodium hypochlorite] | – | – | – | – | Number of viable cells after 1 hr. [1, 9]: ⊖; Number of viable cells after 7 days [1, 9]: ⊖; decrease of activity of immobilized lactase on immersion ([2]; 0.01% solution, immersed for a long period at 18°-20° C.): decrease of activity to some extent; remaining activity at 0.01 % [2, 6]: 96%; remaining activity at 0.01 % [2, 7]: 92%
